Reference: the supplement of paper PMC3493320

Tested on: NCI-H295R
Test: IC50 (antiproliferative, ATP content)
Details: 48 h
Outline: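 Adrenocortical carcinoma cells (1500 per well) were seeded in serum-free ITS-supplemented DMEM in 1536-well plates and cultured overnight. Library compounds were then pin-transferred at 8 final concentrations from 0.6 nM to 46 µM, and plates were kept 48 h at 37 °C, 5% CO2. ATP was read as CellTiter-Glo luminescence after 20 min at room temperature and normalised to vehicle (0%) and positive control (100% inhibition). IC50 came from four-parameter logistic fits; compounds with no concentration response were recorded as above the top dose.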

Row | IC50 | Structure (SMILES)
1 | > 46 µM | CCCCOCCOCCOCc1cc2c(cc1CCC)OCO2
2 | > 46 µM | COC(=O)CCC(=O)CN.Cl
3 | > 46 µM | O=C(O)Cc1cccc2ccccc12
4 | > 46 µM | CC(O)(P(=O)([O-])O)P(=O)([O-])O.[Na+].[Na+]
5 | > 46 µM | CCOc1cc(OCC)c(C(=O)CCC(=O)O)cc1OCC
6 | > 46 µM | Cl.O=C(CCCN1CCC(O)(c2cccc(C(F)(F)F)c2)CC1)c1ccc(F)cc1
7 | > 46 µM | Cc1ccc(S(=O)(=O)NC(=O)NN2CC3CCCC3C2)cc1 (stereo not drawn)
8 | > 46 µM | CCn1ccnc1CC1COc2ccccc2O1 (stereo not drawn)
9 | > 46 µM | CN1CCN(CCCN2c3ccccc3Sc3ccc(C(F)(F)F)cc32)CC1.Cl.Cl
10 | > 46 µM | CCOc1ccccc1C(N)=O
11 | > 46 µM | CCCCCCCCCCCCCCCCCCOCC(O)CO (stereo not drawn)
12 | > 46 µM | CC(=O)Oc1cccc(C(=O)O)c1OC(C)=O
13 | > 46 µM | NS(=O)(=O)Cc1noc2ccccc12
14 | > 46 µM | CC(=O)OCC1=C(C(=O)O)N2C(=O)[C@@H](NC(=O)Cc3ccccc3)[C@H]2SC1
15 | > 46 µM | CCN(CC)CCNC(=O)c1cc(S(C)(=O)=O)ccc1OC.Cl
16 | > 46 µM | O=C(OCCOCCO)c1ccccc1Nc1cccc(C(F)(F)F)c1
17 | > 46 µM | CC(=O)OC[C@H]1O[C@@](COC(C)=O)(O[C@H]2O[C@H](COC(C)=O)[C@@H](OC(C)=O)[C@H](OC(C)=O)[C@H]2OC(C)=O)[C@@H](OC(C)=O)[C@@H]1OC(C)=O
18 | > 46 µM | CC(=O)Nc1c(I)cc(I)c(C(=O)O)c1I
19 | > 46 µM | FC1(F)C(F)(F)C(F)(F)C2(F)C(F)(F)C(F)(F)C(F)(F)C(F)(F)C2(F)C1(F)F (stereo not drawn)
20 | > 46 µM | Cl.O=C(O)CC/C=C\CC[C@@H]1[C@@H](N2CCCCC2)[C@@H](O)C[C@@H]1OCc1ccc(-c2ccccc2)cc1
21 | > 46 µM | Cc1ncc(C[n+]2csc(CCO)c2C)c(N)n1.Cl.[Cl-]
22 | > 46 µM | CN[C@@H]1[C@@H](O[C@H]2O[C@H](CO)[C@@H](N)[C@H](O)[C@H]2O)O[C@H]2C[C@@H](N)[C@@H](O[C@H]3[C@H](O)[C@@H](O)[C@H](N)C[C@@H]3N)O[C@@H]2[C@@H]1O
23 | > 46 µM | CC(O)CCCCn1c(=O)c2c(ncn2C)n(C)c1=O (stereo not drawn)
24 | > 46 µM | CC(C)CCC[C@@H](C)[C@H]1CC[C@H]2[C@@H]3CC[C@@H]4C[C@H](O)CC[C@]4(C)[C@H]3CC[C@]12C
25 | > 46 µM | C=C[C@H]1CN2CC[C@H]1C[C@@H]2[C@@H](O)c1ccnc2ccc(OC)cc12

Row | IC50 | Structure (SMILES)
26 | > 46 µM | Nc1nc(F)nc2c1ncn2[C@H]1O[C@@H](CO)[C@H](O)[C@H]1O
27 | > 46 µM | CN(C)CC/C=C1\c2ccccc2COc2ccccc21.Cl
28 | > 46 µM | CC(=O)Nc1ccc(C(=O)O)cc1
29 | > 46 µM | CC(C)[C@H](CC)CC[C@@H](C)[C@H]3CC[C@H]2[C@@H]4C\C=C1\C[C@@H](O)CC[C@]1(C)[C@H]4CC[C@@]23C
30 | > 46 µM | NS(=O)(=O)c2cc1c(/N=C\NS1(=O)=O)cc2Cl
31 | > 46 µM | O=c1ccn(C2OC(COP(=O)(O)OC3C(CO)OC(n4ccc(=O)[nH]c4=O)C3O)C(O)C2O)c(=O)[nH]1 (stereo not drawn)
32 | > 46 µM | NC(=O)N1c2ccccc2CC(=O)c2ccccc21
33 | > 46 µM | O=C3[C@@H]4[C@]([C@](CC6)(C)[C@H]([C@@]5=COC=C5)O3)(O4)[C@@]2(C)[C@@]6([H])[C@@]1(CO7)[C@H](CC7=O)OC(C)(C)[C@@]([H])1CC2=O
34 | > 46 µM | Cc1cc(NS(=O)(=O)c2ccc(N)cc2)nc(C)n1
35 | > 46 µM | O=[C@@](NC2=O)[C@](N2)3C1=C(OCC3)C=CC(F)=C1
36 | > 46 µM | OC[C@H]1O[C@@H](Oc2ccc(O)cc2)[C@H](O)[C@@H](O)[C@@H]1O
37 | > 46 µM | O=C1C(=Cc2cccs2)CCCC1=Cc1cccs1
38 | > 46 µM | CCCOc1cc(N)ccc1C(=O)OCCN(CC)CC.Cl
39 | > 46 µM | O=C(CCCCCCCCCCCCC1CCCC1)Nc1ccc(S(=O)(=O)c2ccc(NC(=O)CCCCCCCCCCCCC3CCCC3)cc2)cc1
40 | > 46 µM | CC1=CCC(C(C)(C)O)CC1 (stereo not drawn)
41 | > 46 µM | CNc1cc(OC)c(C(=O)N[C@H]2CCN(Cc3ccccc3)[C@H]2C)cc1Cl
42 | > 46 µM | CCN(CC)CCOC(=O)C(c1ccccc1)C1CCCCC1.Cl (stereo not drawn)
43 | > 46 µM | S=C=Nc1ccc(N=C=S)cc1
44 | > 46 µM | CON=C(C(=O)N[C@@H]1C(=O)N2C(C(=O)[O-])=C(CSc3nc(C)c(CC(=O)[O-])s3)CS[C@H]12)c1csc(N)n1.[Na+].[Na+]
45 | > 46 µM | COc1ccc(S(=O)(=O)N2c3ccc(Cl)cc3[C@@](O)(c3ccccc3Cl)[C@H]2C(=O)N2CCC[C@@H]2C(N)=O)cc1OC
46 | > 46 µM | Cn1cnc2c1c(=O)[nH]c(=O)n2C
47 | > 46 µM | CCCCC(CC)COC(=O)CC(C(=O)OCC(CC)CCCC)S(=O)(=O)[O-].[Na+] (stereo not drawn)
48 | > 46 µM | Cc1nc2ccccn2c(=O)c1CCN1CCC(C(=O)c2ccc(F)cc2)CC1
49 | > 46 µM | C#CCOc1ccc2c(C)cc(=O)oc2c1
50 | > 46 µM | COc1cc2c3cc1Oc1cc(ccc1O)C[C@@H]1c4c(cc(OC)c(O)c4Oc4ccc(cc4)C[C@@H]3N(C)CC2)CC[N+]1(C)C.Cl.[Cl-]

Row | IC50 | Structure (SMILES)
51 | > 46 µM | O=C1CCC(c2ccccc2)(C2CCN(Cc3ccccc3)CC2)C(=O)N1 (stereo not drawn)
52 | > 46 µM | NNc1nnc(NN)c2ccccc12
53 | > 46 µM | Cl.N=C(N)n1cccn1
54 | > 46 µM | Cc1ccc(S(=O)(=O)NC(=O)NC2CCCCCCC2)cc1
55 | > 46 µM | OC[C@H]1O[C@@H](O[C@H]2[C@H](O)[C@@H](O)[C@H](O)O[C@@H]2CO)[C@H](O)[C@@H](O)[C@@H]1O
56 | > 46 µM | COc1ccc(C(Cl)=C(c2ccc(OC)cc2)c2ccc(OC)cc2)cc1
57 | > 46 µM | O=C([O-])CC(O)C(=O)[O-].[Na+].[Na+] (stereo not drawn)
58 | > 46 µM | CC[C@H](C)[C@H](NC(=O)[C@H](Cc1ccccc1)NC(=O)[C@H](C)NC(=O)[C@H](CC(=O)O)NC(=O)[C@H](CCCCN)NC(=O)[C@H](CO)NC(=O)[C@@H]1CCCN1C(=O)[C@@H]1CCC(=O)N1)C(=O)NCC(=O)N[C@@H](CC(C)C)C(=O)N[C@@H](CCSC)C(N)=O
59 | > 46 µM | CC(O)C(=O)O.CCCCCCCCCCCCCCNCCO
60 | > 46 µM | IC(I)I
61 | > 46 µM | CC(C)OC(=O)C(C)(C)Oc1ccc(C(=O)c2ccc(Cl)cc2)cc1
62 | > 46 µM | CN(C)c1nc(N(C)C)nc(N(C)C)n1
63 | > 46 µM | CC[C@H](NC(C)C)[C@H](O)c1ccc(O)c2[nH]c(=O)ccc12
64 | > 46 µM | CC(=O)NCc1c(I)c(NC(C)=O)c(I)c(C(=O)O)c1I
65 | > 46 µM | FC(F)(F)c1ccccc1-n1ccnc1
66 | > 46 µM | O=C(CCCN1CCC(O)(c2ccc(Cl)cc2)CC1)c1ccc(F)cc1
67 | > 46 µM | CC(C)(C)NCC(O)COc1ccc(NC(=O)NC2CCCCC2)cc1 (stereo not drawn)
68 | > 46 µM | O=C2N1[C@]([C@@]([H])2NC(C(C(OC)=CC=C3)=C3OC)=O)([H])SC(C)(C)[C@@H]1[C@@]([O-])=O.[Na+].O
69 | > 46 µM | O=c1oc2c(O)c(O)cc3c(=O)oc4c(O)c(O)cc1c4c23
70 | > 46 µM | Clc1cccc(Cl)c1N=C1NCCN1
71 | > 46 µM | N=C\2/N=C3/O[C@H]1[C@H](O)[C@@H](CO)O[C@H]1N3/C=C/2
72 | > 46 µM | Cc1cc(C)c(NC(=O)C[C@H](CC(=O)[O][Na])c2cccc3ccccc23)c(C(=O)N2CCC3(CCCC3)CC2)c1
73 | > 46 µM | Nc1cc(c(cc1S(=O)(N)=O)S(N)(=O)=O)C(/Cl)=C(/Cl)Cl

Row | Structure (SMILES) | IC50
74 | CN(C)CCc1ccc(O)cc1 | > 46 µM
75 | CC(C)C(Br)C(=O)NC(N)=O (stereo not drawn) | > 46 µM
76 | CCC1(c2ccc(N)cc2)CCC(=O)NC1=O (stereo not drawn) | > 46 µM
77 | Cc1nnc2n1-c1ccc(Cl)cc1C(c1ccccc1Cl)=NC2 | > 46 µM
78 | CC(=O)Nc1cc([As](=O)(O)O)ccc1O | > 46 µM
79 | ClCC1CO1 (stereo not drawn) | > 46 µM
80 | O=S(=O)([O-])O.[Na+] | > 46 µM
81 | CCCCCCCCOC(=O)c1ccccc1C(=O)OCCCCCCCC | > 46 µM
82 | COc1ccc(C[C@H](C)NC[C@@H](O)c2ccc(O)c(NC=O)c2)cc1.COc1ccc(C[C@H](C)NC[C@@H](O)c2ccc(O)c(NC=O)c2)cc1.O=C(O)/C=C/C(=O)O | > 46 µM
83 | CCNC(=O)N(CCCN(C)C)C(=O)[C@@H]1C[C@@H]2c3cccc4N\C=C(\C[C@H]2N(C1)CC=C)c34 | > 46 µM
84 | O=P([O-])(O)C(Cl)(Cl)P(=O)([O-])O.[Na+].[Na+] | > 46 µM
85 | CCN(CC)C(=O)N[C@H]1C[C@@H]2c3cccc4[nH]cc(c34)C[C@H]2N(C)C1 | > 46 µM
86 | O=C(O[C@@H]2C[C@H](CC3)[N@@+](C)(C)[C@H]3C2)C(CO)C1=CC=CC=C1.[Br-] (stereo partly drawn) | > 46 µM
87 | CCNCC.O=S(=O)(O)c1cc(O)ccc1O | > 46 µM
88 | ClC4=CC3=[C@@](C=C4O)[C@H]2C1=CC=CC=C1CC[C@@H]2N(C)CC3 | > 46 µM
89 | CN[C@H]1C[C@@H](N)[C@H](O)[C@@H](O[C@@H]2O[C@H](CO)[C@H](O)[C@@H]3OC4(O[C@H]23)O[C@H]([C@H](N)CO)[C@H](O)[C@H](O)[C@H]4O)[C@@H]1O (stereo partly drawn) | > 46 µM
90 | CCNC(C)Cc1cccc(C(F)(F)F)c1 (stereo not drawn) | > 46 µM
91 | COc1ccc(C(CN(C)C)C2(O)CCCCC2)cc1 (stereo not drawn) | > 46 µM
92 | ClC=C(Cl)Cl | > 46 µM
93 | CCOC(=O)CC(SP(=S)(OC)OC)C(=O)OCC (stereo not drawn) | > 46 µM
94 | Cc1ccc(S(=O)(=O)O)cc1.c1cc2c(c(NC3=NCCN3)c1)CCCC2 | > 46 µM
95 | Cn1sc(Cl)cc1=O | > 46 µM
96 | CN(C)CCOC(c1ccc(Cl)cc1)c1ccccn1.O=C(O)/C=C\C(=O)O (stereo not drawn) | > 46 µM
97 | CC(=O)O[C@@H]3C\C4=C\C[C@@H]2[C@H](CC[C@]1(C)C(=O)CC[C@H]12)[C@@]4(C)CC3 | > 46 µM
98 | O.O.O.O.O.O.O.O=S(=O)([O-])[O-].[Co+2] | > 46 µM
